# Structures can show the parent of a compound that is named as a salt.
# Test system: solid tumour
# Assay: Tumour response (WHO criteria) in phase I study
# Format: in vivo, human
# Excerpt: British Journal of Cancer (1996) 73, 744-750 O (C? 1996 Stockton Press All rights reserved 0007-0920/96 $12.00 Phase I and pharmacological study of the new topoisomerase I inhibitor G1147211, using a daily x 5 intravenous administration CJH Gerrits', GJ Creemers', JHM Schellens', P Wissel2, AS Th Planting', R Kunka2, K Selinger2, M de Boer-Dennert', Y Marijnen3, M Harteveld' and J Verweijl 'Department of Medical Oncology, Rotterdam Cancer Institute, Rotterdam, The Netherlands; 2Glaxo Wellcome Inc, Department of Clinical Pharmacology, NC, USA; 3Glaxo Wellcome Inc, Department of Clinical Research, Zeist, The Netherlands. Summary Topoisomerase I inhibitors are interesting anti-cancer agents with a novel mechanism of action. […] In subsequent patient cohorts the dose was escalated from 0.3 to 1.5 mg m-2 day-'. Pharmacokinetics analysis was performed on days 1 and 4 of the first course using a validated high- performance liquid chromatographic assay and non-compartmental methods. […] Its further development was stopped because of unpredictable and severe myelosuppression, gastrointestinal toxicity and haemorrhagic cystitis. In the late 1980s two discoveries brought about a renewal of interest in CPT; firstly, topoisomerase I was identified as the single cellular target of CPT (Hsiang et al., 1985; Hsiang and Liu, 1988) and, secondly, an overexpression of topoisomerase I was found in various tumour cell lines but not in normal tissues (Giovanella et al., 1989; Hirabayaski et al., 1992; Potmesil et al., 1988). Topoisomerase I is a nuclear enzyme that resolves topological problems of the torsionally strained (supercoiled) DNA (Slichenmyer et al., 1993). This is achieved by forming a covalent adduct between topoisome- rase I and the DNA, termed the cleavable complex. This catalytic intermediate creates single-strand DNA breaks, allowing the DNA molecule to rotate around the intact DNA strand at the cleavage site, leading to a relaxation of the DNA molecule and in this way replication, transcription and other DNA functions can proceed. These enzyme- bridged breaks are then resealed by topoisomerase I. CPT stabilises the cleavable complexes, thereby preventing resealing of single-strand DNA breaks in the presence of the drug (Covey et al., 1989; D'Arpa and Liu, 1989; Eng et al., 1988). Cytotoxicity is specific to the S-phase of the cell cycle because the double-strand breaks that occur during this phase are more difficult to repair in the presence of the drug (Horwitz and Horwitz, 1973). […]
structure (smiles),measurement,setting,value
"CC[C@@]1(O)C(=O)OCc2c1cc1n(c2=O)Cc2c-1nc1cc3c(cc1c2CN1CCN(C)CC1)OCCO3 [GI147211, [7 - (methylpiperazinomethylene) - 10,11 - ethylene-dioxy-20(S)] camptothecin dihydrochloride]","stable disease, patients",18 evaluable patients,ten
same,response in leiomyosarcoma patient,"liver metastasis of leiomyosarcoma of the stomach, after two courses",minor response
same,"partial response, patients","metastatic colorectal cancer resistant to 5-FU/folinic acid, 18 evaluable patients",One
same,duration of remission,"partial response, colorectal cancer",6 weeks

# — publication PMC2074382 (British Journal of Cancer, 1996)
